According to EP2340832A1, “Morphinan-6-one compounds for the treatment or prevention of neurodegenerative diseases” (Universität Innsbruck, priority 2009, dated 2011):
Like-named read-outs stand apart in the source and are kept apart here.

Assays:
[1] = molecular target: T1, electric eel AChE (EC 3.1.1.7) (Electrophorus electricus, UniProt O42275); test: Spectrophotometric assay for AChE inhibitory activity (modified Ellman's method); type: biochemical; settings: 96-well microplate, 1% DMSO; read-out: AChE inhibitory activity IC50
T1 construct: purchased Sigma-Aldrich, Germany
T1 sequence (O42275 24-633): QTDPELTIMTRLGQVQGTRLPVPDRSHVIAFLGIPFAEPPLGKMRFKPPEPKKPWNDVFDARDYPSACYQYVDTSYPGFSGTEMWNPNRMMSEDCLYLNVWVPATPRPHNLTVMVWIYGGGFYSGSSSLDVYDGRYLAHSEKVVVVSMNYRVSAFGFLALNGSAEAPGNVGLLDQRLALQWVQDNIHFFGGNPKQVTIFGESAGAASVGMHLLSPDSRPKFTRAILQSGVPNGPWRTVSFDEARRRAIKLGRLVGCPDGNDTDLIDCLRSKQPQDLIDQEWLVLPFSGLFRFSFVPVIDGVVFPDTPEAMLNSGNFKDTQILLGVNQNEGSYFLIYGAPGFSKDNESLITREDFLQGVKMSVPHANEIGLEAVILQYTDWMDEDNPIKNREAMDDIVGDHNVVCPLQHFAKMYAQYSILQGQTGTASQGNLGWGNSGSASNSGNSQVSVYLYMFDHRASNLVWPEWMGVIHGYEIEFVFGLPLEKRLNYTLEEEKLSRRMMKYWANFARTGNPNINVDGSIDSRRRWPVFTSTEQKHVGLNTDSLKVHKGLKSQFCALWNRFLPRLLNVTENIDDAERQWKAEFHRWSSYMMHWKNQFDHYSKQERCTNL

δ opioid receptors = molecular target: T2, δ opioid receptors (Rattus norvegicus, UniProt P33533); test: Opioid receptor binding assay, [3H][Ile5,6]deltorphin II, rat brain membranes; set-up: species or system Sprague-Dawley rat
T2 construct: Membrane fractions were prepared from Sprague-Dawley rat or guinea pig brains; from tissue; host or cells: Sprague-Dawley rat brain (without cerebella) membranes
T2 sequence (P33533 whole entry): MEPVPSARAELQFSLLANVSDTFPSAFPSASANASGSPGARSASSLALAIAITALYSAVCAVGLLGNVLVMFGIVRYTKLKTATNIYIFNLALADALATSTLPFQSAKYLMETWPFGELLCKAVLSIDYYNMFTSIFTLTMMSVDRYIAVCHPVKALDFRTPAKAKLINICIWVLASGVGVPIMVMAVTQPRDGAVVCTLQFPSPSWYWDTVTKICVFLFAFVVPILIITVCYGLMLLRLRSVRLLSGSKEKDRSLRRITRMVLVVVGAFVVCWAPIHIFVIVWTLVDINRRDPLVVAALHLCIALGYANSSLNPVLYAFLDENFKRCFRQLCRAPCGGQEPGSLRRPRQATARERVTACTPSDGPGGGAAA

[2] = molecular target: σ receptors labelled by [^3H]DTG (σ1 + σ2); test: Sigma receptor binding assay, [3H]DTG; settings: read-out: IC50 ± SEM [^3H]DTG (σ1 + σ2); guinea pig brain membranes; compounds 1-5 tested up to 10 µM
Procedure: Filters were washed three times with 5 ml of ice-cold 10 mM Tris-HCI buffer (pH 8). The bound radioactivity was measured by liquid scintillation counting (Beckman Coulter™ LS6500). […] The values are expressed as the mean ± S.E.M of 2 - 4 independent experiments, each performed in duplicate.

C57BL/6N female mice = test: Open field (locomotor activity); type: in vivo; settings: for general locomotion in the open field (move distance, move time): 10 min
Excerpt: Each mouse was used only once. […] . […] Thereafter it was replaced by the obturator.
The open field consisted of a transparent plastic box with white floor (41 x 41 x 41 cm) equipped with an automated activity monitoring system (True Scan, Coulbourn Instruments, Allentown, Pennsylvania, USA). The illumination at floor level was 150 lux. Mice were individually placed into the centre of the open field and their behaviours were tracked with the activity monitoring system. The time of locomotor activity, the overall distance travelled by the mice and the fraction of locomotor activity in the center area (center distance and center time) were monitored for 10 min. The arena was thoroughly cleaned with wet paper towels and dried at the end of each test.
Statistical analysis: All data from behavioural studies are shown as mean ± SEM. Statistical analysis was performed using the analysis of variance (ANOVA), followed by post hoc multiple comparisons Tukey-Kramer test, except comparison of alternation rates with the theoretical value of chance (defined as 50%) which was evaluated by Wilcoxon signed rank test. All statistical analyses were carried out by using the Graphpad Prism Program, version 4.0, Graphpad software, Inc.

[3] = test system: extracellular ACh concentration in the nucleus accumbens; settings: for 0AUC120 min (% increase x min) Mean ± SEM: 0 to 120 min; for Increase in ACh release (Peak increase as % of basal output): nucleus accumbens
µ opioid receptor = µ opioid receptor (Rattus norvegicus, UniProt P33535); test: Opioid receptor binding assay, [3H]DAMGO, rat brain membranes; set-up: Membrane fractions were prepared from Sprague-Dawley rat or guinea pig brains; from tissue; host or cells: Sprague-Dawley rat brain (without cerebella) membranes; species or system Sprague-Dawley rat
Chain of µ opioid receptor (P33535 whole entry): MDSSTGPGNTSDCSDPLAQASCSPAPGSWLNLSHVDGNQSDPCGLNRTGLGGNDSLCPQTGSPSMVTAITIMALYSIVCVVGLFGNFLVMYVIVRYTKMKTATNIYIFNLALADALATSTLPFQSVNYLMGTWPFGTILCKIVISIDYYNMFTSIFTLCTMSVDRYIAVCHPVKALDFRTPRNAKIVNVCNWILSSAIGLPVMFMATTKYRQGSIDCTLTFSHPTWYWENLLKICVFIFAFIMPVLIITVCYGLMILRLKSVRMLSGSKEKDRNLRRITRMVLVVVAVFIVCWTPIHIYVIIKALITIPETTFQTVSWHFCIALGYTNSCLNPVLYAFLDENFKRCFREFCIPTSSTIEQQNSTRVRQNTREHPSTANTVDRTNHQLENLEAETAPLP

`O=CN1CC[C@]23CC(=O)CC[C@H]2[C@H]1Cc1c(O)ccc(O)c13` [Compound 1, 1,4-dihydroxy-N-formylmorphinan-6-one] was tested, and the IC50 [1] was 105 µM, the Ki (δ opioid receptors) was > 10 µM and the “binding to opioid receptor δ (in words)” value (δ opioid receptors) was “does not bind”. For the same compound, the Ki (δ opioid receptors; read-out: Opioid binding affinities Ki δ receptor, [3H][Ile5,6]deltorphin II, rat brain membranes) was > 10 µM, the IC50 [2] was > 10 µM and the “relative center distance and move time” value (C57BL/6N female mice; 0.01 µmol i.c.v.) was “had no effect”. For the same compound, the “relative center distance and move time” value (C57BL/6N female mice; 0.1 µmol i.c.v.) was “increased the relative center distance and move time significantly”, the “general locomotion in the open field (move distance, move time)” value (C57BL/6N female mice; 0.01 and 0.1 µmol i.c.v.) was “did not influence” and the “0AUC120 min (% increase x min) Mean ± SEM” value ([3]; Dose 0.5 µmol i.c.v.) was 210 ± 31 % increase x min. The “Increase in ACh release (Peak increase as % of basal output)” value ([3]; Dose 0.5 µmol i.c.v.) was 65 ± 16 %, the “0AUC120 min (% increase x min) Mean ± SEM” value ([3]; Dose 1 µmol i.c.v.) was 1017 ± 214 % increase x min and the “Increase in ACh release (Peak increase as % of basal output)” value ([3]; Dose 1 µmol i.c.v.) was 224 ± 39 %. For the same compound, the “AUC (area under the curve) of ACh (% of the basal value)” value ([3]; dose of 1 µmol i.c.v.) was 1117±214%, the “level of ACh, peak value (% of the basal value)” value ([3]; dose of 1 µmol i.c.v.) was 324±39% and the “dose dependence of the increase in extracellular brain ACh” value ([3]; i.c.v., across tested doses) was “dose-dependent increase”. For the same compound, the Ki (µ opioid receptor) was > 10 µM, the “binding to opioid receptor µ (in words)” value (µ opioid receptor) was “does not bind” and the Ki (µ opioid receptor; read-out: Opioid binding affinities Ki µ receptor, [3H]DAMGO, rat brain membranes) was > 10 µM.
With `C=CCN1CC[C@]23CC(=O)CC[C@H]2[C@H]1Cc1cccc(OC)c13` [Compound 4, 4-methoxy-N-allylmorphinan-6-one] the IC50 [1] was 1 µM, the Ki (δ opioid receptors) was 0.316 µM and the IC50 [2] was > 10 µM. The “general locomotion in the open field (move distance, move time)” value (C57BL/6N female mice; 0.1 µmol i.c.v.) was “did not influence”, the “fraction of locomotor activity in the central zone” value (C57BL/6N female mice; dose not given) was “did not influence” and the “effect on ACh in the superfusate (in words)” value ([3]; 0.25 µmol i.c.v., n=4, not shown) was “ineffective”. The “effect on ACh in the superfusate (in words)” value ([3]; 0.5 µmol i.c.v.) was “short, delayed increase”, the “toxicity at higher doses” value ([3]; 1 µmol and above, i.c.v., anaesthetized rats) was “could not be tested because of toxicity” and the “0AUC120 min (% increase x min) Mean ± SEM” value ([3]; Dose 0.25 µmol i.c.v.) was “inactive”. For the same compound, the “Increase in ACh release (Peak increase as % of basal output)” value ([3]; Dose 0.25 µmol i.c.v.) was “inactive”, the “0AUC120 min (% increase x min) Mean ± SEM” value ([3]; Dose 0.5 µmol i.c.v.) was 85 ± 26 % increase x min and the “Increase in ACh release (Peak increase as % of basal output)” value ([3]; Dose 0.5 µmol i.c.v.) was 43 ± 19 %. The Ki (µ opioid receptor) was 0.0202 µM, the “binding to opioid receptor µ (in words)” value (µ opioid receptor) was “some µ opioid receptor affinity” and the “selectivity among opioid receptor types” value (µ opioid receptor; from binding, Table 3) was “moderate selectivity for the µ type”.
